# Laboratory results: ChEMBL document CHEMBL1201862, “PubChem BioAssay data set” (2004)
# Calls of active or inactive are those of the source.
# Legend:
# [1] = target: T1, Sentrin-specific protease 8 (Homo sapiens, UniProt Q96LD8); format: functional
# T1 sequence (Q96LD8 whole entry): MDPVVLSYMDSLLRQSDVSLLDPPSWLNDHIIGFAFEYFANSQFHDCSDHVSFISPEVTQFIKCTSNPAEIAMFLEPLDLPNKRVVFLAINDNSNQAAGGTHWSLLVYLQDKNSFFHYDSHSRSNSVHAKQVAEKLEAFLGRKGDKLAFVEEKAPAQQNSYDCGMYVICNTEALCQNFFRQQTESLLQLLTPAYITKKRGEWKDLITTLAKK
# [2] = target: T1, Sentrin-specific protease 8; format: functional; remark: listed apart in the source
# [3] = target: DNA repair and recombination protein RAD54-like (Homo sapiens, UniProt Q92698); assay: RAD54 Holliday junction migration blockers – biochemical, fluorescence, cherry-picked samples, dose series, confirmation (AID 651657); format: functional
# Cytochrome P450 2D6 = Cytochrome P450 2D6 (Homo sapiens, UniProt P10635);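 note: CYP2D6 member of a cytochrome P450 panel assay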
# Cytochrome P450 3A4 = Cytochrome P450 3A4 (Homo sapiens, UniProt P08684);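 note: CYP3A4 tested as one member of a cytochrome P450 panel screen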
# Steroidogenic factor 1 = Steroidogenic factor 1 (Homo sapiens, UniProt Q13285); assay: Counterscreen for inverse agonists of the liver receptor homolog-1 (LRH-1; NR5A2): Luminescence-based cell-based high throughput dose response assay to identify inverse agonists of the Steroidogenic Factor 1 Nuclear Receptor (SF1; NR5A1).; format: functional
# [4] = viability of uninfected HEp-2 cells – cell-based, HTS, cytotoxicity control for RSV inhibitor project, dose response (AID 2410); format: functional; settings: human respiratory syncytial virus
# CHO-K1 = assay: Counterscreen for antagonists of the orexin 1 receptor (OX1R; HCRTR1): Homogeneous time resolved fluorescence (HTRF)-based cell-based dose response assay to identify antagonists of the parental CHO-K1 cell line. [Related pubchem assays (depositor defined):AID434989, AID435008, AID463079, AID485270, AID492963, AID492964, AID492965, AID493232, AID504699, AID504701]; format: functional; settings: Cricetulus griseus;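 note: potency for inhibition of ATP-stimulated IP1 production as antagonists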
# [5] = Counterscreen for antagonists of the orexin 1 receptor (OX1R; HCRTR1): Fluorescence-based cell-based high throughput dose response assay to identify antagonists of the parental CHO cell line. [Related pubchem assays (depositor defined):AID434989, AID435008, AID463079, AID485270, AID492963, AID492964, AID492965, AID493232, AID504699, AID504701]; format: functional
# [6] = target: Eukaryotic translation initiation factor 4E (Mus musculus, UniProt P63073); assay: blockers of eIF4G binding by eIF4E – biochemical, TR-FRET, dose response (AID 855); format: functional;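 note: potency for disrupting eIF4E binding to eIF4GI seen as loss of FRET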
# [7] = target: T2, Orexin/Hypocretin receptor type 1 (Homo sapiens, UniProt O43613); assay: Homogeneous Time Resolved Fluorescence (HTRF)-based cell-based high throughput dose response assay for antagonists of the orexin 1 receptor (OX1R; HCRTR1). [Related pubchem assays (depositor defined):AID434989, AID435008, AID463079, AID485270, AID492963, AID492964, AID492965, AID493232, AID504717, AID504718]; format: functional
# T2 sequence (O43613 whole entry): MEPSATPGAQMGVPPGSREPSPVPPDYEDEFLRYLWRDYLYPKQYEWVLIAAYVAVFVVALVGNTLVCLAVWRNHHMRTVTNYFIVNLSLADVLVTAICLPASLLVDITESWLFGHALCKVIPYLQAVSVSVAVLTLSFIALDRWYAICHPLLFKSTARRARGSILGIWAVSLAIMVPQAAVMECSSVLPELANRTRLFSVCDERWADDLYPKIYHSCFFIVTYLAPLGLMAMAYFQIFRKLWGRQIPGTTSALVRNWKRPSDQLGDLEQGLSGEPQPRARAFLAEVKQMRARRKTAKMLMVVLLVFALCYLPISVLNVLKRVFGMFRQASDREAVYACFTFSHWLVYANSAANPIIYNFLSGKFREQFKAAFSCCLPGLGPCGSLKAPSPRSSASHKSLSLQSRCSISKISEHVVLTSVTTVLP
# [8] = target: T2, Orexin/Hypocretin receptor type 1; assay: Fluorescence-based cell-based high throughput dose response assay for antagonists of the orexin 1 receptor (OX1R; HCRTR1). [Related pubchem assays (depositor defined):AID434989, AID435008, AID463079, AID485270, AID492963, AID492964, AID492965, AID493232, AID504717, AID504718]; format: functional
# Orexin receptor type 2 [9] = target: T3, Orexin receptor type 2 (Homo sapiens, UniProt O43614); assay: Counterscreen assay for antagonists of the orexin 1 receptor (OX1R; HCRTR1): Fluorescence-based cell-based dose response assay for antagonists of the orexin 2 receptor (OX2R; HCRTR2), run by assay provider.; format: functional
# T3 sequence (O43614 whole entry): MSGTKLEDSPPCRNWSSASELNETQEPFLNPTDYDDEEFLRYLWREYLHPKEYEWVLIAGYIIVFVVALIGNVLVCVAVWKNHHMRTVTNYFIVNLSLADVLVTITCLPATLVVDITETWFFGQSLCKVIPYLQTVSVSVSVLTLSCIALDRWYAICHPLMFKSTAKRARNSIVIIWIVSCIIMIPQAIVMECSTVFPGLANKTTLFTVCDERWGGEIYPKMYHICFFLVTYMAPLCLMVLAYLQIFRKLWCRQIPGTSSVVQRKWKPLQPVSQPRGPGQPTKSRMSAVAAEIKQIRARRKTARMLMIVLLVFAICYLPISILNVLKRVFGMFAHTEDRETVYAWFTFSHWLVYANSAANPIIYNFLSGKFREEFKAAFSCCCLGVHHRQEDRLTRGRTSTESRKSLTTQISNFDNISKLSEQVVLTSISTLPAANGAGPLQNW
# Orexin receptor type 2 [10] = target: T3, Orexin receptor type 2; assay: Counterscreen assay for antagonists of the orexin 1 receptor (OX1R; HCRTR1): Homogeneous Time Resolved Fluorescence (HTRF)-based cell-based dose response assay for antagonists of the orexin 2 receptor (OX2R; HCRTR2), run by assay provider.; format: functional
# [11] = target: Mitochondrial peptide methionine sulfoxide reductase (Bos taurus, UniProt P54149); format: functional;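 note: absorbance read-out, biochemical high-throughput dose-response screen for MsrA inhibitors, confirmatory; recombinant bovine MsrA coupled to E. coli TrxB with NADPH and selenocystamine; potency is for inhibitors of MsrA activity on DMSO substrate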
# [12] = target: Ras and Rab interactor 1/Tyrosine-protein kinase ABL1 (Homo sapiens, UniProt P00519+Q13671); format: functional;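 note: biochemical TR-FRET dose-response test measuring inhibition of binding between Rin1 and Abl proteins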
# Vero = assay: mammalian cell viability reduction – secondary assay, cytotoxicity control for West Nile virus antiviral project, dose response (AID 1650); format: functional; settings: Chlorocebus sabaeus
# [13] = target: DNA (cytosine-5)-methyltransferase 1 (Homo sapiens, UniProt P26358); assay: inhibition of DNA methylation by DNMT1 – biochemical, fluorescent molecular beacon, confirmation (AID 602386); format: functional
# [14] = target: Tyrosine-protein phosphatase non-receptor type 11 (Homo sapiens, UniProt Q06124); assay: PTPN11 enzyme inhibitors – biochemical, selectivity assay for STEP inhibitor project, dose response (AID 602367); format: functional; settings: read-out: IC50_Mean
# [15] = target: Tyrosine-protein phosphatase non-receptor type 5 (Homo sapiens, UniProt P54829); assay: PTPN5 enzyme inhibition – biochemical, fluorescence intensity, uHTS hits, confirmation (AID 602372); format: functional; settings: read-out: IC50_Mean
# [16] = target: Dual specificity protein phosphatase 3 (Homo sapiens, UniProt P51452); assay: VHR phosphatase inhibition, dose response, selectivity assay for STEP inhibitor project, biochemical (AID 602374); format: functional; settings: read-out: IC50_Mean
# [17] = target: T4, Low molecular weight phosphotyrosine protein phosphatase (Homo sapiens, UniProt P24666); format: functional; settings: read-out: IC50_Mean;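 note: Dose-response confirmation assay measuring inhibition of LMPTP enzyme activity by fluorescence intensity read-out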
# T4 sequence (P24666 whole entry): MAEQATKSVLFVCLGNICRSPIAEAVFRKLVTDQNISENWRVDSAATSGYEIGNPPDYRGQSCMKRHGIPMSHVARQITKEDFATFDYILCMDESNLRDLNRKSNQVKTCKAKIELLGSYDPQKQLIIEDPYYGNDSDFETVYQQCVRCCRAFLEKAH
# cells [18] = format: functional, cell-based
# cells [19] = format: functional, cell-based; remark: listed apart in the source
# [20] = target: T5, Carboxy-terminal domain RNA polymerase II polypeptide A small phosphatase 1 (Homo sapiens, UniProt Q9GZU7); assay: CTDSP1 inhibitors, concentration-response, biochemical, absorbance readout, ultra-high-throughput screen actives (AID 540297); format: functional
# T5 sequence (Q9GZU7 whole entry): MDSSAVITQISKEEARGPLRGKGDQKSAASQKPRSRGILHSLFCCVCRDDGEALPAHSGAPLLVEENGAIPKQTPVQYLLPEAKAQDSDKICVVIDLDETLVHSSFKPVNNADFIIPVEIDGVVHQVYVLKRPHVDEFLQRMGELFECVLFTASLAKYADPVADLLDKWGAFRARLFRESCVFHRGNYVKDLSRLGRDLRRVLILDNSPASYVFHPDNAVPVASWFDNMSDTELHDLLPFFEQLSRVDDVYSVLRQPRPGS
# [21] = target: Luciferin 4-monooxygenase (Photinus pyralis, UniProt P08659); assay: inhibition of purified Photinus pyralis luciferase – biochemical, luminescence, dose response (AID 1891)
# [22] = Luminescence Cell-Based Dose Confirmation HTS to Identify Inhibitors of Platelet Dense Granule Release. [Related pubchem assays: 1663 (Primary HTS), 1678 (Summary of Project)]; format: functional
# Cytochrome P450 2C9 = Cytochrome P450 2C9 (Homo sapiens, UniProt P11712)
# [23] = target: T6, DNA repair protein RAD52 homolog (Homo sapiens, UniProt P43351); format: functional, biochemical
# T6 sequence (P43351 whole entry): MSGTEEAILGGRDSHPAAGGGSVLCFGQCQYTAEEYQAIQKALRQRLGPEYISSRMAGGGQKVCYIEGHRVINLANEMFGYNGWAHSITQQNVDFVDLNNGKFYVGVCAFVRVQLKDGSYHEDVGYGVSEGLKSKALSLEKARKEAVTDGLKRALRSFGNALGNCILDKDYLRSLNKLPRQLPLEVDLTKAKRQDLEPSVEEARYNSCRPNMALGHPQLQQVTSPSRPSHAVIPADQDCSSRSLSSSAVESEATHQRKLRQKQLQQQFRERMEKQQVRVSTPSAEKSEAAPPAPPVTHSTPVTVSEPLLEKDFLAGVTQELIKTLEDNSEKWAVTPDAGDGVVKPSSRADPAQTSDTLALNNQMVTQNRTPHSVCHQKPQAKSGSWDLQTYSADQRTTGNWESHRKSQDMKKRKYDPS
# Tyrosine-protein phosphatase non-receptor type 5, sequence (P54829 whole entry): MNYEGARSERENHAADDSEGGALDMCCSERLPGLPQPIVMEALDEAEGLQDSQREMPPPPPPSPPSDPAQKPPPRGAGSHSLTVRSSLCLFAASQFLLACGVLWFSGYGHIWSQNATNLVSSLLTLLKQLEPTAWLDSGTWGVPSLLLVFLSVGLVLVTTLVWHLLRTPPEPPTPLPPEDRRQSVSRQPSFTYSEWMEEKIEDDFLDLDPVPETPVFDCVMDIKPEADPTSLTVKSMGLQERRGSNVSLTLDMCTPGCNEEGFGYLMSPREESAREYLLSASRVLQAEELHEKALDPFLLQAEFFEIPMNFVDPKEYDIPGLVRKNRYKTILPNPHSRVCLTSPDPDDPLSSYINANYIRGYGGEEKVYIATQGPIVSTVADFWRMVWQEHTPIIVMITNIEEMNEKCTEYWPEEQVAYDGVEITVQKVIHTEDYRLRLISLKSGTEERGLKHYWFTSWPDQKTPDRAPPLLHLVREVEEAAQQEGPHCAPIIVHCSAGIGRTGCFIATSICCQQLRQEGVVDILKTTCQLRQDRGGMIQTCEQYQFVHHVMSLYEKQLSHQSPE
# DNA repair and recombination protein RAD54-like, sequence (Q92698 whole entry): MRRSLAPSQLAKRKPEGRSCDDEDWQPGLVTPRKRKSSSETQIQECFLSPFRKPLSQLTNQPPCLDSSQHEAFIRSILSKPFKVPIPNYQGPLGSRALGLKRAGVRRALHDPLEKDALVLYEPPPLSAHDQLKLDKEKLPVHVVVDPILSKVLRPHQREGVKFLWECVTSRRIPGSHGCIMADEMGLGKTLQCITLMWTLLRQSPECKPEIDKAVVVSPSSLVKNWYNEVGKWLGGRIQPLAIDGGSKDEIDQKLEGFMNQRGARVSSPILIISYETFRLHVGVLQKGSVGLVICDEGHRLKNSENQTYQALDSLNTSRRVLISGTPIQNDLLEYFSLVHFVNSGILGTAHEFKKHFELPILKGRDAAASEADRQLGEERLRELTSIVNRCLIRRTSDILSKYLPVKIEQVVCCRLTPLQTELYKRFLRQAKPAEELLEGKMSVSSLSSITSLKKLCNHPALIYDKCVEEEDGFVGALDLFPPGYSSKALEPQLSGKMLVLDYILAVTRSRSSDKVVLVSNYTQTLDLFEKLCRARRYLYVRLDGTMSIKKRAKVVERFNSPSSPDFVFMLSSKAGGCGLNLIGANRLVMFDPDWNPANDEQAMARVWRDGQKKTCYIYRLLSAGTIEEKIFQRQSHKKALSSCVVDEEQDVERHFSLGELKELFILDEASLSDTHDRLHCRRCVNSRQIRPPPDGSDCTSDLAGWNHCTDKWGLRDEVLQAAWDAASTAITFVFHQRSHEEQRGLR
# Dual specificity protein phosphatase 3, sequence (P51452 whole entry): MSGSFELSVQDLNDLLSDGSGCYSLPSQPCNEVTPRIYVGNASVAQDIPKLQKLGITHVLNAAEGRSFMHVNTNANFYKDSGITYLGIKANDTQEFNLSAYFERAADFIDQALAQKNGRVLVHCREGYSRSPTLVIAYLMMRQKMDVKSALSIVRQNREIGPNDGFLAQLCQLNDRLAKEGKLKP
# Tyrosine-protein phosphatase non-receptor type 11, sequence (Q06124 whole entry): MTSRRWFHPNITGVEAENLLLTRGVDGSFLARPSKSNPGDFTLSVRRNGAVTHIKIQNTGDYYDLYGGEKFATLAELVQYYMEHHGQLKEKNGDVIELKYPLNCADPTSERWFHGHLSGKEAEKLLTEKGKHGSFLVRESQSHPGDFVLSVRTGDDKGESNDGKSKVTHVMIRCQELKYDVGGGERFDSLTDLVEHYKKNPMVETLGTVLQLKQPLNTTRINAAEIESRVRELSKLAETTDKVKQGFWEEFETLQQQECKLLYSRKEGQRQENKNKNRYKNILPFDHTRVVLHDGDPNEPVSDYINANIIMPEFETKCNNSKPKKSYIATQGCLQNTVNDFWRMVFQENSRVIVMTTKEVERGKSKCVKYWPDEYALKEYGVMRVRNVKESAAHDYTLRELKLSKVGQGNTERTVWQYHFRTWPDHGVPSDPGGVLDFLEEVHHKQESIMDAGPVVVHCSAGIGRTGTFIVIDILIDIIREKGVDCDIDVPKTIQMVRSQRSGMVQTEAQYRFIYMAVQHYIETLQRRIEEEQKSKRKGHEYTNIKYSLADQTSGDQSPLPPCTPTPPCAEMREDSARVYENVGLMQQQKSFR
# Ras and Rab interactor 1/Tyrosine-protein kinase ABL1, sequence (P00519 whole entry): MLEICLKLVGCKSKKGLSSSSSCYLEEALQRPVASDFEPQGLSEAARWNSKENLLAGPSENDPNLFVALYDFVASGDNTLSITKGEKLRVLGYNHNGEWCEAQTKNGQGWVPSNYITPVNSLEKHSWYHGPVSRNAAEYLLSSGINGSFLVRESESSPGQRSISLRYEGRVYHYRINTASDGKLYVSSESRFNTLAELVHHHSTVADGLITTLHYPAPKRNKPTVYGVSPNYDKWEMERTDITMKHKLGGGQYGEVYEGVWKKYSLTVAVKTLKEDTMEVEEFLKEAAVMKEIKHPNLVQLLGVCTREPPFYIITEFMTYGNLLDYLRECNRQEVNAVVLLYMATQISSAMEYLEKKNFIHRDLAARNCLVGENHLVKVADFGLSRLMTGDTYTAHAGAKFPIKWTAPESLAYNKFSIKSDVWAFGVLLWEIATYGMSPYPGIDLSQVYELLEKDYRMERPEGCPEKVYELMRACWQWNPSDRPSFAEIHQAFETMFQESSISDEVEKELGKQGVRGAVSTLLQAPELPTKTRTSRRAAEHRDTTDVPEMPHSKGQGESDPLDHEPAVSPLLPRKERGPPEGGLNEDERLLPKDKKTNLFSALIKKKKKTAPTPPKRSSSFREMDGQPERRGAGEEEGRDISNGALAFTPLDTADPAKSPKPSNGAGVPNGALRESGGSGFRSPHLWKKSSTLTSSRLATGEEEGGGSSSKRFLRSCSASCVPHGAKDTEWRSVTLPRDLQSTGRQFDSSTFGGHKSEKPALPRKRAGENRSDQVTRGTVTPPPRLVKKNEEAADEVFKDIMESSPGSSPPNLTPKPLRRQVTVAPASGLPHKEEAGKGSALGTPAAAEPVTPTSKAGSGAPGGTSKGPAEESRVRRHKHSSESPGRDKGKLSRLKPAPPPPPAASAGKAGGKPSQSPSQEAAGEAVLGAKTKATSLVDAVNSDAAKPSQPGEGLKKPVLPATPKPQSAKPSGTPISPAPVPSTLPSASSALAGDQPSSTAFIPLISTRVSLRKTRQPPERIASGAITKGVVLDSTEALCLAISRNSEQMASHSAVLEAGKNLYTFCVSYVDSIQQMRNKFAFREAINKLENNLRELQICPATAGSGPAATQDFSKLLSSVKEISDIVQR
# Ras and Rab interactor 1/Tyrosine-protein kinase ABL1, sequence (Q13671 whole entry): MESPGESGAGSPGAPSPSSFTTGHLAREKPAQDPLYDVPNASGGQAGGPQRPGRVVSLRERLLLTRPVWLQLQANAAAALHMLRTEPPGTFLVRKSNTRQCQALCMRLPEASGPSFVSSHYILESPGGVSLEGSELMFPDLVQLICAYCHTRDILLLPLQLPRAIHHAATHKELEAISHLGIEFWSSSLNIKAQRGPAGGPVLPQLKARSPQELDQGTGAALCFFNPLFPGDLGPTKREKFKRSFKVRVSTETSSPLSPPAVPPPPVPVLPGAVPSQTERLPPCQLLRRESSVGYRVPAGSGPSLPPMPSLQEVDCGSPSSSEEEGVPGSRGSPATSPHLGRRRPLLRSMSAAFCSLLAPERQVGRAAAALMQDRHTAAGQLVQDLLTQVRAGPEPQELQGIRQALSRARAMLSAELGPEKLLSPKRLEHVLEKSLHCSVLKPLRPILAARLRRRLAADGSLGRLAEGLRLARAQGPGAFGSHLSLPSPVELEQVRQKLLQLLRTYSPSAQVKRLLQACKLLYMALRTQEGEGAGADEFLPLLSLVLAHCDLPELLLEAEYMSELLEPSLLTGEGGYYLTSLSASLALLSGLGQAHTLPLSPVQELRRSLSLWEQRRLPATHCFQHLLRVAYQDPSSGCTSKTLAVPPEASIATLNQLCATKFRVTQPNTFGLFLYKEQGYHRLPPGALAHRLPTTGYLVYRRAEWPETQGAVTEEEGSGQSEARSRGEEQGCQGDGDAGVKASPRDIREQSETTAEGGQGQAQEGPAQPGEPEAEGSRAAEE
# Cytochrome P450 2D6, sequence (P10635 whole entry): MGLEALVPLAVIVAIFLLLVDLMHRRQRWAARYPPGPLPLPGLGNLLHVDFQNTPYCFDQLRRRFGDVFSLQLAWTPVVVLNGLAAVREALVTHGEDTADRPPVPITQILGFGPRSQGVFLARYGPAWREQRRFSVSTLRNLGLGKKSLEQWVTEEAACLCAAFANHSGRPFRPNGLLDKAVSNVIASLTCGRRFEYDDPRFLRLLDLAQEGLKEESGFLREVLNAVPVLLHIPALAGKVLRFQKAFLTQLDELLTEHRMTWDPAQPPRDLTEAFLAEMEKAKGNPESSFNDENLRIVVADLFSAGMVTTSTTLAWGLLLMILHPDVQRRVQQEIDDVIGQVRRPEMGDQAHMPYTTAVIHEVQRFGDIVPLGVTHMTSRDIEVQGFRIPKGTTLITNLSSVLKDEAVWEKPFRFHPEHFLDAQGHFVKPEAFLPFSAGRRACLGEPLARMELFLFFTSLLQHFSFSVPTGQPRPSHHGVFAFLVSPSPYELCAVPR
# Steroidogenic factor 1, sequence (Q13285 whole entry): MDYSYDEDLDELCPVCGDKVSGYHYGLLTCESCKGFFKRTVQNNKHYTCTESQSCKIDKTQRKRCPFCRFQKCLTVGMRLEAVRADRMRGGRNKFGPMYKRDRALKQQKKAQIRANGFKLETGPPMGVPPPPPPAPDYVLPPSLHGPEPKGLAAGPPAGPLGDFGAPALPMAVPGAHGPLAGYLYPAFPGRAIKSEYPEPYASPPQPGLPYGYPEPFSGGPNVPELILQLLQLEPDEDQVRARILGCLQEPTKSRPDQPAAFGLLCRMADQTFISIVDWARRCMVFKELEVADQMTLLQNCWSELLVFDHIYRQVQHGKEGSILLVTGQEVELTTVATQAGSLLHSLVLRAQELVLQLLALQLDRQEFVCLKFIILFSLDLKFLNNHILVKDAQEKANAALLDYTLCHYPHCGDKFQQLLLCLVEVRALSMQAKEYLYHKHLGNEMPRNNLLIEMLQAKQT
smiles,measurement,setting,value
COC(=O)CCCC1=CC2=CC(=O)C(C)(OC(=O)c3cccs3)C(=O)C2=CN1CCc1ccccn1 (stereo not drawn),IC50,[1],20.9 µM (active)
same,IC50,[2],9.96 µM (active)
CCN1CCN(c2nn3c(=O)c4ccccc4nc3c3ccccc23)CC1,AC50,[3],19.9 µM (active)
same,AC50,Cytochrome P450 2D6,14.1 µM (inconclusive)
same,AC50,Cytochrome P450 3A4,20 µM (inconclusive)
COc1cccc(N2CCN(CC(=O)Nc3ccc(-n4cnnn4)cc3)CC2)c1,IC50,Steroidogenic factor 1,6.28 µM (active)
Cc1cnc(NC(=O)c2ccc(-c3nc4ccccc4s3)o2)s1,CC50,[4],30.7 µM (active)
same,IC50,CHO-K1,62 µM (inactive)
same,IC50,[5],> 49.8 µM (inactive)
same,IC50,[6],> 64 µM (inactive)
same,IC50,[7],333 nM (active)
same,IC50,[8],1.97 µM (active)
same,IC50,Orexin receptor type 2 [9],> 88.8 µM (inactive)
same,IC50,Orexin receptor type 2 [10],> 50 µM (inactive)
COC(=O)CCCC1=CC2=C(c3ccccc3)C(=O)C(C)(OC(=O)C3CCCC3)C(=O)C2=CN1C1CCCCC1 (stereo not drawn),IC50,[1],13 µM (active)
same,IC50,[2],6.2 µM (active)
COc1ccc2cc(-c3n[nH]cc3CN3CCCC3c3nonc3C)ccc2c1 (stereo not drawn),IC50,[11],85.5 µM (inactive)
COc1ccc(S(=O)(=O)N2CCCCCC2)cc1C(=O)Nc1ccc(C(=O)N(C)C)cc1,IC50,[12],8.07 µM (active)
O=C(CSc1nc(O)c2ccccc2n1)Nc1nc(-c2ccc(Br)cc2)cs1,CC50,Vero,35.9 µM (active)
same,IC50,[13],5.12 µM (active)
CCOc1ccc(CCNC(=O)CN2C(=O)c3cccnc3Oc3ccc(C)cc32)cc1OCC,IC50,[12],9.82 µM (active)
Sc1ncnc2c1ncn2-c1ccc(Cl)cc1,IC50,[14],6.29 µM (active)
same,IC50,[15],29.4 µM (inactive)
same,IC50,[16],1.48 µM (active)
COc1ccc2ncccc2c1Cc1c(OC)ccc2ncccc12,IC50,[17],9.3 µM (active)
O=C(N/N=C/c1ccc(F)cc1)c1cc(-c2ccc3c(c2)OCO3)[nH]n1,EC50,cells [18],> 350 µM (not active)
same,EC50,cells [19],> 350 µM (not active)
same,IC50,[20],9.8 µM (active)
same,IC50,[14],5.14 µM (active)
same,IC50,[15],> 80 µM (inactive)
same,IC50,[16],6.61 µM (active)
COc1ccc(/C=N/Nc2snc(SC)c2C#N)cc1OC,EC50,[21],46.8 µM (active)
same,EC50,[22],> 112 µM (not active)
same,IC50,CHO-K1,> 66.2 µM (inactive)
same,IC50,[5],> 49.8 µM (inactive)
same,IC50,[7],1930 nM (active)
same,IC50,[8],4.85 µM (active)
same,IC50,Orexin receptor type 2 [9],> 88.8 µM (inactive)
same,IC50,Orexin receptor type 2 [10],> 50 µM (inactive)
same,AC50,Cytochrome P450 2D6,0.282 µM (inconclusive)
same,AC50,Cytochrome P450 2C9,12.6 µM (inconclusive)
CN(C)CCNC(=O)c1cccc(-c2cnc3c(NC=O)cc(-c4ccc(C(=O)N5CCOCC5)cc4)cn23)c1,AC50,[3],47.8 µM (active)
same,AC50,[23],9.04 µM (active)
